In ChEMBL document CHEMBL5325393, “A mini-review on synthesis and antiviral activity of natural product oxetanocin A derivatives” (Bioorg Med Chem, 2022):
In brackets after ≈: the same amount, converted by molar mass.

Legend:
HUVEC [1] = test: Angiogenic activity against HUVEC cells assessed as relative area of tube formation at 100 uM incubated for 96 hrs by Alexa fluor 488 staining based analysis; format: functional, Homo sapiens
[2] = test system: Human immunodeficiency virus 1; test: Antiviral activity against HIV-1 assessed as inhibition of viral replication; format: functional, organism-based
[3] = test system: Human immunodeficiency virus; test: Antiviral activity against HIV RF assessed as inhibition of viral growth; format: functional, organism-based; conditions: Human immunodeficiency virus 1, RF
[4] = test system: Human immunodeficiency virus; test: Antiviral activity against HIV infected in human MT4 cells by plaque reduction assay; format: functional, organism-based; conditions: Human immunodeficiency virus 1, MT4
Human alphaherpesvirus 2 [5] = test: Antiviral activity against HSV-2 assessed as inhibition of viral growth; format: functional, organism-based
Human alphaherpesvirus 1 [6] = test: Antiviral activity against HSV-1 assessed as inhibition of viral growth; format: functional, organism-based
[7] = test system: Human immunodeficiency virus; test: Antiviral activity against HIV assessed as inhibition of viral growth; format: functional, organism-based; conditions: Human immunodeficiency virus 1
HUVEC [8] = test: Angiogenic activity against HUVEC cells assessed as relative area of tube formation at 100 uM incubated for 10 days by tube formation assay; format: functional, Homo sapiens; conditions: time 10 day
Cytomegalovirus = test: Antiviral activity against CMV AD-169 infected in HEL cells assessed as reduction in virus plaque formation; format: functional, organism-based; conditions: Human betaherpesvirus 5, AD-169, HEL
Human alphaherpesvirus 2 [9] = test: Antiviral activity against HSV-2 186 infected in African green monkey Vero cells assessed as reduction in virus induced cytopathogenicity by plaque reduction assay; format: functional, organism-based; conditions: Human alphaherpesvirus 2, 186, Vero
[10] = test system: Human immunodeficiency virus 1; test: Antiviral activity against HIV-1 HTLV-IIIB infected in human MT4 cells assessed as reduction in virus induced cytopathogenicity by immunofluorescence assay; format: functional, organism-based; conditions: Human immunodeficiency virus 1, HTLV-IIIB
Hepatitis B virus [11] = test: Antiviral activity against HBV infected in human HepG2.2.15 cells assessed as reduction in virus induced cytopathogenicity by Southern blot analysis; format: functional, organism-based
Human alphaherpesvirus 2 [12] = test: Potency index, ratio of acyclovir EC50 to test compound EC50 for antiviral activity against HSV-2 186 infected in African green monkey Vero cells assessed as reduction in virus induced cytopathogenicity by plaque reduction assay; format: functional
Human betaherpesvirus 5 [13] = test: Antiviral activity against HCMV AD169 infected in HEL cells assessed as reduction in virus induced cytopathogenicity by plaque reduction assay; format: functional, organism-based; conditions: Human betaherpesvirus 5, AD169, HEL
Human alphaherpesvirus 1 [14] = test: Antiviral activity against HSV-1 KOS infected in African green monkey Vero cells assessed as reduction in virus induced cytopathogenicity by plaque reduction assay; format: functional, organism-based; conditions: Human alphaherpesvirus 1, KOS
Human alphaherpesvirus 1 [15] = test: Potency index, ratio of acyclovir EC50 to test compound EC50 for antiviral activity against HSV-1 KOS infected in African green monkey Vero cells assessed as reduction in virus induced cytopathogenicity by plaque reduction assay; format: functional
[16] = test system: Human immunodeficiency virus 1; test: Antiviral activity against HIV-1 HTLV-IIIB infected in human MT4 cells assessed as inhibition of viral replication incubated for 4 days by immunofluorescence assay; format: functional, organism-based; conditions: Human immunodeficiency virus 1, HTLV-IIIB, MT4, 96 h
Human betaherpesvirus 5 [17] = test: Antiviral activity against HCMV AD169 infected in HELF cells by plaque reduction assay; format: functional, organism-based; conditions: Human betaherpesvirus 5, AD169, HELF
Hepatitis B virus [18] = test: Antiviral activity against HBV infected in human HB611 cells assessed as inhibition of viral DNA replication incubated for 15 days by SDS-PAGE based autoradiographic analysis; format: functional, organism-based; conditions: HB611, 360 h
[19] = Cytotoxicity against human CCD-18Co cells assessed as inhibition of cell growth by colorimetric method; format: toxicity, cell-based
[20] = Cytotoxicity against human Detroit 551 cells assessed as inhibition of cell growth by colorimetric method; format: toxicity, cell-based
[21] = Cytotoxicity against human HB611 cells assessed as inhibition of cell growth incubated for 48 hrs by colorimetric method; format: functional
Human alphaherpesvirus 1 [22] = test: Antiviral activity against thymidine kinase positive HSV-1 123 infected in HFF cells assessed as reduction in viral replication incubated for 3 days by crystal violet staining based microplate reader analysis; format: functional, organism-based; conditions: Human alphaherpesvirus 1, 123, HFF, 72 h
Human alphaherpesvirus 3 [23] = test: Antiviral activity against thymidine kinase positive VZV V8907 infected in HFF cells assessed as reduction in viral replication incubated for 10 days by crystal violet staining based microplate reader analysis; format: functional, organism-based; conditions: Human alphaherpesvirus 3, V8907, HFF, 240 h
Human alphaherpesvirus 3 [24] = test: Antiviral activity against thymidine kinase positive VZV V8602/5-1-1 infected in HFF cells assessed as reduction in viral replication incubated for 10 days by crystal violet staining based microplate reader analysis; format: functional, organism-based; conditions: Human alphaherpesvirus 3, V8602/5-1-1, HFF, 240 h
Human alphaherpesvirus 1 [25] = test: Antiviral activity against thymidine kinase positive HSV-1 SC-16 infected in HFF cells assessed as reduction in viral replication incubated for 3 days by crystal violet staining based microplate reader analysis; format: functional, organism-based; conditions: Human alphaherpesvirus 1, SC-16, HFF, 72 h
Human alphaherpesvirus 3 [26] = test: Antiviral activity against thymidine kinase positive VZV OKA infected in HFF cells assessed as reduction in viral replication incubated for 10 days by crystal violet staining based microplate reader analysis; format: functional, organism-based; conditions: Human alphaherpesvirus 3, OKA, 240 h
Human alphaherpesvirus 1 [27] = test: (§1) Antiviral activity against lethal intracerebral HSV-1 123 infected in po dosed Swiss mouse model assessed as increase in animal survival administered as single double strength loading dose at 7 hrs post-inoculation and single strength dose at 23, 31, 47, 55, 71, 79 hrs post-inoculation and monitored for 21 days; format: functional; conditions: time 21 day
Human alphaherpesvirus 1 [28] = test: Antiviral activity against thymidine kinase positive HSV-1 E-377 infected in HFF cells assessed as reduction in viral replication incubated for 3 days by crystal violet staining based microplate reader analysis; format: functional, organism-based; conditions: Human alphaherpesvirus 1, E-377, HFF, 72 h
Human alphaherpesvirus 3 [29] = test: Antiviral activity against thymidine kinase positive VZV Ellen infected in HFF cells assessed as reduction in viral replication incubated for 10 days by crystal violet staining based microplate reader analysis; format: functional, organism-based; conditions: Human alphaherpesvirus 3, Ellen, 240 h
Human alphaherpesvirus 3 [30] = test: Antiviral activity against thymidine kinase positive VZV DKG infected in HFF cells assessed as reduction in viral replication incubated for 10 days by crystal violet staining based microplate reader analysis; format: functional, organism-based; conditions: Human alphaherpesvirus 3, DKG, 240 h
Human alphaherpesvirus 1 [31] = test: as §1, with “systemic” for “intracerebral”; format: functional; conditions: time 21 day
[32] = Antiproliferative against human HFF cells assessed as inhibition of cell growth by neutral red uptake analysis; format: toxicity, cell-based
MT4 = test: Cytotoxicity against human MT4 cells assessed as inhibition of cell growth; format: functional

For `Nc1nc(Br)nc2c1ncn2[C@@H]1C[C@H](CO)[C@H]1CO`, the Ratio (HUVEC [1]) was 2.1.
Molecule `Cc1cn([C@H]2C[C@H](N=[N+]=[N-])[C@@H](CO)O2)c(=O)[nH]c1=O` [ZIDOVUDINE] has an EC50 [2] of 0.003 µg/mL (≈ 0.0112 µM).
`[N-]=[N+]=N[C@H]1[C@H](n2cnc3c(N)ncnc32)O[C@@H]1CO` showed an IC50 [3] of 6 µg/mL (≈ 22.9 µM).
Work on `Nc1ncnc2c1ncn2[C@@H]1O[C@H](CO)[C@@H]1O` yielded an IC50 [4] of 0.54 µg/mL (≈ 2.28 µM).
In the case of `Nc1ncnc2c1ncn2N1C[C@H](CO)[C@H]1CO`, the EC50 (Human alphaherpesvirus 2 [5]) is reported as 34.9 µg/mL (≈ 139 µM), the EC50 (Human alphaherpesvirus 1 [6]) is reported as 33.2 µg/mL (≈ 133 µM) and the EC50 [2] is reported as 0.37 µg/mL (≈ 1.48 µM).
Molecule `Nc1ncnc2c1ncn2[C@H]1C[C@@H](CO)C1` has an EC50 [7] of 0.8 µM.
With `Nc1nc(Cl)nc2c1ncn2[C@H]1C[C@H](CO)C1` the Ratio (HUVEC [8]) was 3.32.
`C=C1C[C@@H](n2cnc3c(=O)[nH]c(N)nc32)[C@@H]1CO` showed an EC50 (Cytomegalovirus) of 70 µg/mL (≈ 283 µM).
For `Nc1ncnc2c1ncn2[C@@H]1C[C@](F)(CO)[C@H]1CO`, the EC50 (Human alphaherpesvirus 2 [9]) was 1.33 µg/mL (≈ 4.98 µM), the EC50 [10] was 3.73 µg/mL (≈ 14 µM) and the EC50 (Hepatitis B virus [11]) was 0.41 µg/mL (≈ 1.53 µM). The “Ratio EC50” value (Human alphaherpesvirus 2 [12]) was 7, the EC50 (Human betaherpesvirus 5 [13]) was 0.18 µg/mL (≈ 0.673 µM) and the EC50 (Human alphaherpesvirus 1 [14]) was 2.72 µg/mL (≈ 10.2 µM). For the same molecule, the “Ratio EC50” value (Human alphaherpesvirus 1 [15]) was 7.
For `Nc1nc(Cl)nc2c1ncn2[C@@H]1C[C@@H](CO)[C@H]1CO`, the Ratio (HUVEC [8]) was 3.43.
For `Nc1nc(N)c2ncn([C@@H]3O[C@H](CO)[C@H]3CO)c2n1`, the EC50 [16] was 2.2 µM and the IC50 (Human betaherpesvirus 5 [17]) was 1 µM.
For `Nc1nc2c(ncn2[C@@H]2O[C@H](CO)[C@H]2CO)c(=O)[nH]1`, the EC50 [16] was 2.2 µM, the IC50 (Hepatitis B virus [18]) was 1.5 µM and the IC50 [19] was > 300 µM. The IC50 [20] was > 300 µM, the CC50 [21] was > 1000 µM and the IC50 (Human betaherpesvirus 5 [17]) was 1 µM.
`Cc1cn([C@@H]2O[C@H](CO)[C@H]2CO)c(=O)[nH]c1=O` showed an EC50 (Human alphaherpesvirus 1 [22]) of 0.012 µM, an EC50 (Human alphaherpesvirus 3 [23]) of 0.01 µM and an EC50 (Human alphaherpesvirus 3 [24]) of 0.01 µM. The EC50 (Human alphaherpesvirus 1 [25]) was 0.012 µM, the EC50 (Human alphaherpesvirus 3 [26]) was 0.01 µM and the ED50 (Human alphaherpesvirus 1 [27]) was 211 mg/kg.day. The EC50 (Human alphaherpesvirus 1 [28]) was 0.012 µM, the EC50 (Human alphaherpesvirus 3 [29]) was 0.01 µM and the EC50 (Human alphaherpesvirus 3 [30]) was 0.01 µM. For the same molecule, the ED50 (Human alphaherpesvirus 1 [31]) was 142 mg/kg.day and the IC50 [32] was > 100 µM.
For `O=c1[nH]cnc2c1ncn2[C@@H]1O[C@H](CO)[C@H]1CO`, the EC50 [16] was 2.2 µM, the CC50 (MT4) was 330 µM and the IC50 (Human betaherpesvirus 5 [17]) was 18 µM.
`CC(C)Oc1nc(N)c2ncn([C@@H]3C[C@H](CO)[C@H]3CO)c2n1` gave a Ratio (HUVEC [8]) of 1.9.
For `O=c1[nH]c(=O)c2ncn([C@@H]3O[C@H](CO)[C@H]3CO)c2[nH]1`, the EC50 [16] was > 100 µM and the IC50 (Human betaherpesvirus 5 [17]) was > 50 µM.
Molecule `Nc1ccn([C@@H]2CS[C@H](CO)O2)c(=O)n1` [LAMIVUDINE] has an EC50 (Human alphaherpesvirus 2 [9]) of 0.39 µg/mL (≈ 1.7 µM) and an EC50 (Hepatitis B virus [11]) of 0.009 µg/mL (≈ 0.0393 µM).
